Experimental data reported in patent publication US12624067B2, “Cyclic peptide, cell scaffold material, cell separating material, and medium” (FUJIFILM Corporation, priority 2019, dated 2026).
Read-outs that look alike come from different tables or passages of the source. Numbered stars: 1 amine (or outer) side, 2 acyl side, 3 side chain; on linkers, the order of the positions; unused ones are H or OH. Bridge positions count the residues as written; N and C are the ends. Square brackets hold non-standard residues; d marks the D form. Peptide text beside a SMILES is read from it. Pen = CC(C)(S)[C@H](N)C(=O)O; hCys = N[C@@H](CCS)C(=O)O; Orn = NCCC[C@H](N)C(=O)O; Dab = NCC[C@H](N)C(=O)O; Dap = NC[C@H](N)C(=O)O; X1 = O=C(C[*:1])[*:2]; X2 = O=C(C[*:2])[*:1]

Experiments:
human integrin αvβ5 = human integrin αvβ5 (Homo sapiens, UniProt P06756+P18084); assay: Evaluation of integrin binding property (surface plasmon resonance, Biacore 3000, immobilized cyclic peptide)
Sequence of human integrin αvβ5 (P06756 31-889 limits assumed): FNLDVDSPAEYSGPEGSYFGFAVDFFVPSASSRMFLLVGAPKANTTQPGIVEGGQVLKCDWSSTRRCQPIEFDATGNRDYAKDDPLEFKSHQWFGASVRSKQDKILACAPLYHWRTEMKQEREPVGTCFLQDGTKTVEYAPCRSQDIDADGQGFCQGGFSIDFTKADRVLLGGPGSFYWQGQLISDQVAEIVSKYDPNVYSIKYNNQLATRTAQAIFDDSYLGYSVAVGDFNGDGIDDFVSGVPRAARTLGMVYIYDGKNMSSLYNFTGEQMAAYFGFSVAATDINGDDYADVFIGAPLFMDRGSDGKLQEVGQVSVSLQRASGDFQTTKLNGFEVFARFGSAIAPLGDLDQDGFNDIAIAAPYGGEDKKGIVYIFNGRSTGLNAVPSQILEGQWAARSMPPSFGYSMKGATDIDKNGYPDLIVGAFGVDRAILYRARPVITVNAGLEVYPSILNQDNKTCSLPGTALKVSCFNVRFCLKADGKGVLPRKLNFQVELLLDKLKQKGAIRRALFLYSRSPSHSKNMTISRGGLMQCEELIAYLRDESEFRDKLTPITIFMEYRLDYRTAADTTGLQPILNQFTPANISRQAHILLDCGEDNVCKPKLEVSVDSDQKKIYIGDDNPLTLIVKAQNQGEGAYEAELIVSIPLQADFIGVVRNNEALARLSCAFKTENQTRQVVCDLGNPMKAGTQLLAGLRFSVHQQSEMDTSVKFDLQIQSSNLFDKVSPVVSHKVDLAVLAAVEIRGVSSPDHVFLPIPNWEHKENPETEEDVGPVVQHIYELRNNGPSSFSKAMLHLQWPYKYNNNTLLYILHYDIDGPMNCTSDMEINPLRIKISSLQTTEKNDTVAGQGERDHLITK
Sequence of human integrin αvβ5 (P06756 891-1048 partner limits assumed): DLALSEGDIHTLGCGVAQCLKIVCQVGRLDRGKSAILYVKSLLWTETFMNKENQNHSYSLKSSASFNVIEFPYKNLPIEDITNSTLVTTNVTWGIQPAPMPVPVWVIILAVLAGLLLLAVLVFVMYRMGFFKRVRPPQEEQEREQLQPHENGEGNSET
Sequence of human integrin αvβ5 (P18084 24-799): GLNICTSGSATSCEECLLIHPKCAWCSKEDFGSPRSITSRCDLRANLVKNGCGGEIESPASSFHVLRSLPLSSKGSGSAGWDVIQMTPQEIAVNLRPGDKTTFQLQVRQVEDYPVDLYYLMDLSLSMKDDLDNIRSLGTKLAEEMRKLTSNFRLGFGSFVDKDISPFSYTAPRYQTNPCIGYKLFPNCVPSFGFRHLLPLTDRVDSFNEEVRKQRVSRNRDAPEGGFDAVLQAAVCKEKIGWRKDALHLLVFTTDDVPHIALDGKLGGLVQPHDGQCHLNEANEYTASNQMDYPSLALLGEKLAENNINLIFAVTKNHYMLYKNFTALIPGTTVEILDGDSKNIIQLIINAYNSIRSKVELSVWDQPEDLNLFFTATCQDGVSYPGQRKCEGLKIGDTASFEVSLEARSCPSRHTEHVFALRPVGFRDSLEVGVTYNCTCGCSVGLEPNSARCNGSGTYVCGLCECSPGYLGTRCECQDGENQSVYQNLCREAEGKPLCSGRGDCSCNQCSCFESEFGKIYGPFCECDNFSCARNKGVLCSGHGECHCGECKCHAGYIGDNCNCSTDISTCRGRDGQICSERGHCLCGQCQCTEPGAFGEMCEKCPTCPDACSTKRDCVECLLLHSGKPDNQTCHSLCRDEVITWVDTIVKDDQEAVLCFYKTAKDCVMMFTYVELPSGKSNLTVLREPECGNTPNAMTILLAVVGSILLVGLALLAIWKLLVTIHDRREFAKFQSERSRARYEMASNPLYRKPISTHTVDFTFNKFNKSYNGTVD
Outline: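 Cyclic peptides amine-coupled to a CM5 chip via EDC/NHS, with a blank reference channel; integrin injected 10 min at 25 °C at 30, 100, 300 and 1,000 nM in HEPES pH 7.4, 150 mM NaCl, 5 mM MgCl2, then 30 min buffer flow, EDTA regeneration. Kd from reference-subtracted responses, graded by category.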

[1] = Evaluation of molecule stability (alkali treatment, LC/MS residual rate); type: physicochemical; conditions: 500 μM peptide plus equivalent of 1 M sodium hydroxide, 15° C., 20 minutes, LC/MS peak area
Outline: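 Cyclic peptide at 500 μM in water treated with an equivalent of 1 M NaOH for 20 minutes at 15° C. Residual rate is the total LC/MS peak area after treatment relative to that before treatment, set as 100%. Analysis on a C18 column at 45° C with ammonium formate pH 3 eluents and ESI detection.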

[2] = peptide immobilized on CM5 sensor chip, human integrin αvβ5 30-1,000 nM, 25° C., HEPES buffer with 5 mM magnesium chloride, read-out: Integrin binding property (dissociation constant)

Q: For C[C@@H](O)[C@@H]1NC(=O)CSCC[C@@H](C(=O)N[C@@H](CCCCN)C(=O)N[C@@H](CCCCN)C(=O)N[C@@H](CCCCN)C(=O)O)NC(=O)[C@H](Cc2ccccc2)NC(=O)[C@@H]2CCCCNC(=O)CSCC[C@H](NC1=O)C(=O)N[C@@H](CCCNC(=N)N)C(=O)NCC(=O)N[C@@H](CC(=O)O)C(=O)N2 [Cyclic peptide 27] ({CH2CO}-T[hCys]RGDKF[hCys]KKK-OH; linker 2-6 via X1; thioether N-8), which Kd (human integrin αvβ5; [2]) is on record?
A: < 50 nM

Q: And the “Molecule stability (cyclic peptide residual rate)” value [1]?
A: A (The residual rate of the cyclic peptide is 70% or more.)

Q: For CC[C@H](C)[C@@H]1NC(=O)CSCC[C@@H](C(=O)N[C@@H](CCCCN)C(=O)N[C@@H](CCCCN)C(=O)N[C@@H](CCCCN)C(=O)O)NC(=O)[C@H](Cc2ccccc2)NC(=O)[C@@H]2CCNC(=O)CSC[C@H](NC1=O)C(=O)N[C@@H](CCCNC(=N)N)C(=O)NCC(=O)N[C@@H](CC(=O)O)C(=O)N2 [Cyclic peptide 20] ({CH2CO}-ICRGD[Dab]F[hCys]KKK-OH; linker 2-6 via X1; thioether N-8), which Kd (human integrin αvβ5; [2]) is on record?
A: < 50 nM

Q: And the “Molecule stability (cyclic peptide residual rate)” value [1]?
A: A (The residual rate of the cyclic peptide is 70% or more.)

Q: With CC[C@H](C)[C@@H]1NC(=O)CSCC[C@@H](C(=O)N[C@@H](CCCCN)C(=O)N[C@@H](CCCCN)C(=O)N[C@@H](CCCCN)C(=O)O)NC(=O)[C@H](Cc2ccccc2)NC(=O)[C@@H]2CCSCC(=O)NCCC[C@H](NC1=O)C(=O)N[C@@H](CCCNC(=N)N)C(=O)NCC(=O)N[C@@H](CC(=O)O)C(=O)N2 [Cyclic peptide 3] ({CH2CO}-I[Orn]RGD[hCys]F[hCys]KKK-OH; linker 2-6 via X2; thioether N-8) as the molecule, how does the Kd (human integrin αvβ5; [2]) read?
A: < 50 nM

Q: What about the “Molecule stability (cyclic peptide residual rate)” value [1] of the same molecule?
A: A (The residual rate of the cyclic peptide is 70% or more.)

Q: What does the source list for CC[C@H](C)[C@@H]1NC(=O)CSCC[C@@H](C(=O)N[C@@H](CCCCN)C(=O)N[C@@H](CCCCN)C(=O)N[C@@H](CCCCN)C(=O)O)NC(=O)[C@H](Cc2ccccc2)NC(=O)[C@@H]2CCCNC(=O)CSCC[C@H](NC1=O)C(=O)N[C@@H](CCCNC(=N)N)C(=O)NCC(=O)N[C@@H](CC(=O)O)C(=O)N2 [Cyclic peptide 9] ({CH2CO}-I[hCys]RGD[Orn]F[hCys]KKK-OH; linker 2-6 via X1; thioether N-8)?
A: Kd (human integrin αvβ5; [2]): 50 to 100 nM; Molecule stability (cyclic peptide residual rate) [1]: A (The residual rate of the cyclic peptide is 70% or more.)

Q: For CC[C@H](C)[C@@H]1NC(=O)CSCC[C@@H](C(=O)N[C@@H](CCCCN)C(=O)N[C@@H](CCCCN)C(=O)N[C@@H](CCCCN)C(=O)O)NC(=O)[C@H](Cc2ccccc2)NC(=O)[C@@H]2CCSCC(=O)NCC[C@H](NC1=O)C(=O)N[C@@H](CCCNC(=N)N)C(=O)NCC(=O)N[C@@H](CC(=O)O)C(=O)N2 [Cyclic peptide 2] ({CH2CO}-I[Dab]RGD[hCys]F[hCys]KKK-OH; linker 2-6 via X2; thioether N-8), which Kd (human integrin αvβ5; [2]) is on record?
A: 100 to 200 nM

Q: What about the “Molecule stability (cyclic peptide residual rate)” value [1] of the same molecule?
A: A (The residual rate of the cyclic peptide is 70% or more.)

Q: Which Kd (human integrin αvβ5; [2]) does the source give for CC[C@H](C)[C@@H]1NC(=O)CSC(C)(C)[C@@H](C(=O)N[C@@H](CCCCN)C(=O)N[C@@H](CCCCN)C(=O)N[C@@H](CCCCN)C(=O)O)NC(=O)[C@H](Cc2ccccc2)NC(=O)[C@@H]2CCSCC(=O)NCCC[C@H](NC1=O)C(=O)N[C@@H](CCCNC(=N)N)C(=O)NCC(=O)N[C@@H](CC(=O)O)C(=O)N2 [Cyclic peptide 23] ({CH2CO}-I[Orn]RGD[hCys]F[Pen]KKK-OH; linker 2-6 via X2; thioether N-8) here?
A: < 50 nM

Q: What about the “Molecule stability (cyclic peptide residual rate)” value [1] of the same molecule?
A: A (The residual rate of the cyclic peptide is 70% or more.)

Q: For N=C(N)NCCC[C@@H]1NC(=O)[C@@H]2CCSCC(=O)NCCCC[C@H](NC(=O)[C@H](CC(=O)O)NC(=O)CNC1=O)C(=O)N[C@@H](Cc1ccccc1)C(=O)N[C@H](C(=O)N[C@@H](CCCCN)C(=O)N[C@@H](CCCCN)C(=O)N[C@@H](CCCCN)C(=O)O)CCSCC(=O)N[C@@H](CCC(=O)O)C(=O)N2 [Cyclic peptide 30] ({CH2CO}-E[hCys]RGDKF[hCys]KKK-OH; linker 2-6 via X1; thioether N-8), which Kd (human integrin αvβ5; [2]) is on record?
A: < 50 nM

Q: What about the “Molecule stability (cyclic peptide residual rate)” value [1] of the same molecule?
A: A (The residual rate of the cyclic peptide is 70% or more.)

Q: Which Kd (human integrin αvβ5; [2]) does the source give for N=C(N)NCCC[C@@H]1NC(=O)[C@@H]2CCSCC(=O)NCCC[C@H](NC(=O)[C@H](CC(=O)O)NC(=O)CNC1=O)C(=O)N[C@@H](Cc1ccccc1)C(=O)N[C@H](C(=O)N[C@@H](CCCCN)C(=O)N[C@@H](CCCCN)C(=O)N[C@@H](CCCCN)C(=O)O)CCSCC(=O)N[C@@H](CC(=O)O)C(=O)N2 [Cyclic peptide 42] ({CH2CO}-D[hCys]RGD[Orn]F[hCys]KKK-OH; linker 2-6 via X1; thioether N-8) here?
A: < 50 nM

Q: And the “Molecule stability (cyclic peptide residual rate)” value [1]?
A: A (The residual rate of the cyclic peptide is 70% or more.)

Q: For CC[C@H](C)[C@@H]1NC(=O)CSCC[C@@H](C(=O)N[C@@H](CCCCN)C(=O)N[C@@H](CCCCN)C(=O)N[C@@H](CCCCN)C(=O)O)NC(=O)[C@@H]2CCCN2C(=O)[C@@H]2CCCCNC(=O)CSCC[C@H](NC1=O)C(=O)N[C@@H](CCCNC(=N)N)C(=O)NCC(=O)N[C@@H](CC(=O)O)C(=O)N2 [Cyclic peptide 31] ({CH2CO}-I[hCys]RGDKP[hCys]KKK-OH; linker 2-6 via X1; thioether N-8), which Kd (human integrin αvβ5; [2]) is on record?
A: 50 to 100 nM

Q: And the “Molecule stability (cyclic peptide residual rate)” value [1]?
A: A (The residual rate of the cyclic peptide is 70% or more.)

Q: For CC[C@H](C)[C@@H]1NC(=O)CSCC[C@@H](C(=O)N[C@@H](CCCCN)C(=O)N[C@@H](CCCCN)C(=O)N[C@@H](CCCCN)C(=O)O)NC(=O)[C@H](Cc2ccccc2)NC(=O)[C@@H]2CNC(=O)CSCC[C@H](NC1=O)C(=O)N[C@@H](CCCNC(=N)N)C(=O)NCC(=O)N[C@@H](CC(=O)O)C(=O)N2 [Cyclic peptide 5] ({CH2CO}-I[hCys]RGD[Dap]F[hCys]KKK-OH; linker 2-6 via X1; thioether N-8), which Kd (human integrin αvβ5; [2]) is on record?
A: 50 to 100 nM

Q: What about the “Molecule stability (cyclic peptide residual rate)” value [1] of the same molecule?
A: A (The residual rate of the cyclic peptide is 70% or more.)

Q: With C[C@H](N)C(=O)N[C@H]1CSSC[C@@H](C(=O)NCC(=O)N[C@@H](CCCCN)C(=O)N[C@@H](CCCCN)C(=O)N[C@@H](CCCCN)C(=O)O)NC(=O)[C@H](Cc2ccccc2)NC(=O)[C@@H]2CSSC[C@H](NC(=O)[C@H](CC(=O)O)NC1=O)C(=O)N[C@@H](CCCNC(=N)N)C(=O)NCC(=O)N[C@@H](CC(=O)O)C(=O)N2 [Cyclic peptide 49, ACDCRGDCFCGKKK, reference compound] (H-ACDCRGDCFCGKKK-OH; disulfide 2-10, 4-8) as the molecule, how does the Kd (human integrin αvβ5) read?
A: < 50 nM

Q: And the “Molecule stability (cyclic peptide residual rate)” value [1]?
A: D (The residual rate of the cyclic peptide is less than 30%.)

Q: For CC[C@H](C)[C@@H]1NC(=O)CSCC[C@@H](C(=O)N[C@@H](CCCCN)C(=O)N[C@@H](CCCCN)C(=O)N[C@@H](CCCCN)C(=O)O)NC(=O)[C@H](Cc2ccccc2)NC(=O)[C@@H]2CSCC(=O)NCCC[C@H](NC1=O)C(=O)N[C@@H](CCCNC(=N)N)C(=O)NCC(=O)N[C@@H](CC(=O)O)C(=O)N2 [Cyclic peptide 16] ({CH2CO}-I[Orn]RGDCF[hCys]KKK-OH; linker 2-6 via X2; thioether N-8), which Kd (human integrin αvβ5; [2]) is on record?
A: < 50 nM

Q: And the “Molecule stability (cyclic peptide residual rate)” value [1]?
A: A (The residual rate of the cyclic peptide is 70% or more.)

Q: Which results are given for N=C(N)NCCC[C@@H]1NC(=O)[C@@H]2CCSCC(=O)NCCC[C@H](NC(=O)[C@H](CC(=O)O)NC(=O)CNC1=O)C(=O)N[C@@H](Cc1ccccc1)C(=O)N[C@H](C(=O)N[C@@H](CCCCN)C(=O)N[C@@H](CCCCN)C(=O)N[C@@H](CCCCN)C(=O)O)CCSCC(=O)N[C@@H](CCC(=O)O)C(=O)N2 [Cyclic peptide 43] ({CH2CO}-E[hCys]RGD[Orn]F[hCys]KKK-OH; linker 2-6 via X1; thioether N-8)?
A: Kd (human integrin αvβ5; [2]): < 50 nM; Molecule stability (cyclic peptide residual rate) [1]: A (The residual rate of the cyclic peptide is 70% or more.)
